Measured values from patent US9120779B2, “Inhibitors of HCV NS5A” (PRESIDIO PHARMACEUTICALS, INC., priority 2008, dated 2015).

system: HCV genotype 1b replicon in Huh 7 cells; assay: HCV replicon assay (luciferase readout, 1b_Huh-Luc/Neo-ET cell line); assay type: cell-based; conditions: Hepatitis C virus, Huh-7, 72 h, read-out: Inhibition of HCV genotype 1b, Table 1, 72 h incubation
In short: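 Huh 7 cells carrying a bicistronic genotype 1b luciferase replicon treated with compound in triplicate for 72 h. Replicon level read as luciferase activity (Bright-Glo), expressed as % of control; EC50 from a sigmoidal Hill-slope fit, repeated several times.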

`COC(=O)N[C@H](C(=O)N1CCC[C@H]1c1ncc(-c2ccc([C@H]3CC[C@H](c4cnc([C@@H]5CCCN5C(=O)[C@H](C(C)C)N(C)C)[nH]4)CC3)cc2)[nH]1)C(C)C` [compound 941] and `COC(=O)N[C@H](C(=O)N1CCC[C@H]1c1ncc(-c2ccc([C@H]3CC[C@H](c4cnc([C@@H]5CCCN5C(=O)[C@H](NC(=O)OC5CCOCC5)C(C)C)[nH]4)CC3)cc2)[nH]1)C(C)C` [compound 946] cannot be ordered by EC50: < 1 nM for the first, < 1 nM for the second.

same assay, conditions: Hepatitis C virus, Huh-7, 72 h, read-out: Inhibition of HCV genotype 1b, Table 2, 72 h incubation

In the case of `COC(=O)N[C@@H](C(=O)N1CCC[C@H]1c1ncc(-c2ccc(-c3ccc4nc([C@@H]5CCCN5C(=O)[C@H](NC(=O)OC)c5ccccc5)[nH]c4c3)cc2)[nH]1)c1ccccc1` [compound 401], the EC50 is reported as < 1 nM.

same assay, conditions: Hepatitis C virus, Huh-7, 72 h, read-out: Inhibition of HCV genotype 1b, Table 3, 72 h incubation

`COC(=O)N[C@@H](C(=O)N[C@@H](C)c1ncc(-c2cc(F)c(N3CCC(c4cnc([C@@H]5CCCN5C(=O)[C@H](NC(=O)OC)c5ccccc5)[nH]4)CC3)c(F)c2)[nH]1)c1ccccc1` [compound 518] and `COC(=O)N[C@H](C(=O)N1CCC[C@H]1c1ncc(C2CCN(c3c(F)cc(-c4cnc([C@@H]5CCCN5C(=O)[C@H](NC(=O)OC)c5ccccc5)[nH]4)cc3F)CC2)[nH]1)[C@@H](C)OC` [compound 466] cannot be ordered by EC50: < 1 nM for the first, < 1 nM for the second.

Compound `COC(=O)N[C@@H](C(=O)N1CCC[C@H]1c1ncc(-c2cc(F)c(N3CCC(c4cnc([C@@H]5CCCN5C(=O)[C@H](NC(=O)OC)C(C)C)[nH]4)CC3)c(F)c2)[nH]1)C(C)C` [compound 498] has an EC50 of 1 to 9.9 nM.

same assay, conditions: Hepatitis C virus, Huh-7, 72 h, read-out: Inhibition of HCV genotype 1b, Table 5, 72 h incubation

`COC(=O)N[C@H](C(=O)N1CCC[C@H]1c1ncc(-c2ccc(C34CCC(c5cnc([C@@H]6CCCN6C(=O)[C@@H](NC(=O)N6CCOCC6)C(C)C)[nH]5)(CC3)CC4)cc2)[nH]1)C(C)C` [compound 2060] and `COC(=O)N[C@H](C(=O)N1CCC[C@H]1c1ncc(C23CCC(c4ccc(-c5cnc([C@@H]6CCCN6C(=O)[C@H](NC(=O)N6CCC(O)CC6)c6ccccc6)[nH]5)cc4)(CC2)CC3)[nH]1)C(C)C` [compound 2101] cannot be ordered by EC50: < 1 nM for the first, < 1 nM for the second.

`CNC(=O)N[C@@H](C(=O)N1CCC[C@H]1c1ncc(C23CCC(c4ccc(-c5cnc([C@@H]6CCCN6C(=O)[C@@H](NC(=O)OC)C(C)C)[nH]5)cc4)(CC2)CC3)[nH]1)c1ccccc1` [compound 2089] and `COC(=O)N(C)[C@H](C(=O)N1CCC[C@H]1c1ncc(-c2ccc(C34CCC(c5cnc([C@@H]6CCCN6C(=O)[C@H](C(C)C)N(C)C(=O)OC)[nH]5)(CC3)CC4)cc2)[nH]1)C(C)C` [compound 913] cannot be ordered by EC50: < 1 nM for the first, < 1 nM for the second.

First: COC(=O)N[C@H](C(=O)N[C@@H](C)c1ncc(C23CCC(c4ccc(-c5cnc([C@@H]6CCCN6C(=O)[C@@H](NC(=O)OC)C(C)C)[nH]5)cc4)(CC2)CC3)[nH]1)C(C)C [compound 2097]
Second: CC(C)(C)OC(=O)N[C@@H](C(=O)N1CCC[C@H]1c1ncc(-c2ccc(C34CCC(c5cnc([C@@H]6CCCN6C(=O)[C@H](NC(=O)OC(C)(C)C)c6ccccc6)o5)(CC3)CC4)cc2)[nH]1)c1ccccc1 [compound 605]
The EC50 of the first is lower: < 1 nM for the first, 1 to 9.9 nM for the second.
